These results are taken from patent US10731187B2, “Recombinant strain producing O-aminobenzoate and fermentative production of aniline from renewable resources via 2-aminobenzoic acid” (Covestro Deutschland AG, priority 2014, dated 2020).

One data set has as its system B. subtilis. The experiment in a line: Shake flask growth (OD600) with supplementation of toxic substances. It counts as cell-based, Bacillus subtilis subsp. 168. The following applies: 3 g/L oAB, pH 7 (MOPS), 100-mL shake flask, 25 h. From the text: Several strains commonly used industrial biotechnology were investigated regarding their natural tolerance towards oAB and to organic solvents in question for later product extraction (e.g. 1-dodecanol or octanol). Furthermore, the influence of the used pH value was investigated. It was known from previous experiments that at least for E. coli the toxicity of aromatic compounds depends strongly on the pH value, probably because protonated acids can much more efficiently penetrate the cell membrane and accordingly their toxicity rises severely. The extraction of oAB in an organic phase is supposed to work best at low pH values, close to the isoelectric point of oAB. The most relevant host strains considered were: Escherichia coli K12, Corynebacterium glutamicum DSM 20300 (=ATCC 13032), Pseudomonas putida KT2440, Bacillus subtilis subsp. 168, Saccharomyces cerevisiae DSM 70449, and Pichia pastoris X33 (DSM 70382).
To investigate the chosen strains towards the mentioned characteristics shake flasks and small scale fermentation experiments were performed and the organisms were supplemented with the toxic substances (aminobenzoates, solvents) at differed concentrations, different pH values, and the behaviour of the strains was studied. […]

A short description of data set [1]: Solubility of oAB in 1-dodecanol (solid liquid equilibrium). It counts as physicochemical. The procedure:
The solubility of oAB in dodecanol was tested with increasing temperature.

For data set [2], the system named is Corynebacterium glutamicum. The experiment in a line: Small-scale fermentation (1 L fermenters, pH 7, glucose fed) with supplementation. The following applies: pH 7, fermenter. It counts as cell-based. From the text: The results obtained in the shake flask experiments with C. glutamicum were reproduced in small-scale fermenters (FIG. 21). […]. The glucose-fed allowed the strain to grow to higher cell densities.
. This confirmed the results obtained in shake flasks (see FIG. 22). […] It was concluded that 1-dodecanol is a suitable oAB extraction solvent.
In a further experiment the concentration of oAB was increased to investigate the effect on the C. glutamicum strain. The four fermenters were hereto supplemented with 0 g/L, 15 g/L, 35 g/L and 80 g/L of oAB. […] The rest of the cultivation conditions was kept as described above. […] Cultures supplemented with 15 g/L oAB have shown an extensive lag-phase over 34-48 h before growth was recovered and cells entered the exponential phase (see FIG. 24). An oAB degradation during fermentation was again excluded by HPLC measurements of culture supernatants (data not shown).

On to `Nc1ccccc1C(=O)O` [oAB, 2-aminobenzoic acid], for which the “growth (OD600)” value is “strongly decreased” in the data set on B. subtilis; “prolonged lag-phase but finally same cell densities were reached” in data set [2] (7 g/L); “growth inhibition” in data set [2] (35 g/L oAB (ammonium salt)); “dying (lysis) of the cells” in data set [2] (80 g/L oAB (ammonium salt), over 54 hours). For the same molecule, the “solubility in 1-dodecanol” value in data set [1] (3 wt %, room temperature) is on record as “perfectly soluble”. Further, the “solubility of oAB in 1-dodecanol (concentration)” value in data set [1] (40 ° C.) is 4.88 wt %; in data set [1] (68 ° C.), 13.10 wt %; in data set [1] (93 ° C.) it was 23.05 wt %; in data set [1] (111 ° C.), 35.34 wt %; in data set [1] (119 ° C.), 44.22 wt %; in data set [1] (123 ° C.), 50.93 wt %. Moreover, the “lag-phase before growth was recovered” value in data set [2] (15 g/L oAB (ammonium salt)) fell in the range of 34 to 48 h.
